This note sets out measurements from patent US9611263B2, “Compounds that modulate intracellular calcium” (CALCIMEDICA, INC., priority 2013, dated 2017).

pIC50: −log10 of the molar value. Read-outs that look alike come from different tables or passages of the source.

Assay [1] has as its target T1, Orai1/STIM1 (Homo sapiens, UniProt Q96D31).
T1 construct: expressed in transfected cells
The assay is described as follows: Fluorescence-based assay of store-operated calcium entry in Orai1/STIM1 stable cells. To be noted: HEK-293 cells stably expressing human STIM1 and Orai1, 50% inhibition of Peak-Basal fluorescence signal; for pIC50: read-out: Orai1/STIM1 (IC50, μmol). More on the design: key to Orai1/STIM1 (IC50, μmol): A < 0.6 μmol; 0.6 μmol ≦ B ≦ 1.2 μmol; C > 1.2 μmol; — = no fit. Format: cell-based. Here is the method: A. Fluorescence-Based Assay of Store-Operated Calcium Entry in Orai1/STIM1 Stable Cells.
Cells stably expressing recombinant human STIM1 and Orai1 are generated by transfecting a human Orai1 expression plasmid (pcDNA3.1-Orai1-cmyc) into HEK-293 cells stably overexpressing human STIM1 (Roos et al. 2005 JCB 169(3): 435-445). Colonies of cells stably expressing both STIM1 and Orai1 proteins are selected and then subcloned by limiting dilution. Cells were cultured at 37° C./6% CO2 in complete medium with 10% FBS and appropriate selection markers.
The day prior to performing the assay Orai1/STIM1 stable cells are plated in 50 μL of complete medium at 90-95% confluence in a 384 well plate. Cells are grown at 37° C./6% CO2 overnight. On the day of the assay, 1.5 μM fluo-4-AM (Invitrogen) in complete medium is added to the cells, which are then incubated for 1 hour at RT. Cells are washed once in Ca^2+-free HBSS (Hank's buffered saline solution) and 35 μl of Ca^2+-free HBSS is added to each well. Test compounds are added to wells in a 10 μL Ca^2+-free HBSS solution, prepared at 4.5× the desired final concentration, and incubated for 30 minutes at RT. The initial baseline fluorescence signal is then measured with a FLIPR^384 (Molecular Devices) plate reader. Calcium entry is initiated by adding 5 μl of 10× CaCl2 (10 mM) in HBSS, and changes in cellular fluorescence are measured with the FLIPR^384 plate reader. In each well, the magnitude of the fluorescence signal as a result of calcium entry into the cell is determined by calculating the difference between the peak fluorescence signal measured after calcium addition and the initial baseline fluorescence signal (designated Peak-Basal). IC50 values are typically calculated as the concentration that inhibited 50% of the Peak-Basal signal.

Assay [2] deals with RBL-2H3 cells. The assay is described as follows: Fluorescence-based assay of store-operated calcium entry in RBL-2H3 cells. Format: cell-based, rat. To be noted: thapsigargin, 50% inhibition of Upslope, read-out: RBL-2H3 (IC50, μmol). Here is the method: B. Fluorescence-Based Assay of Store-Operated Calcium Entry in RBL-2H3 Cells.
RBL-2H3 cells are obtained from ATCC and maintained in complete medium with 10% FBS at 37° C./6% CO2.
The day prior to performing the assay, RBL-2H3 cells are plated in 50 μL of complete medium in a 384 well plate. Cells are grown at 37° C./6% CO2 overnight and grow to 50-60% confluence by the next day. On the assay day, 1.5 μM Fluo-4-AM dye (Invitrogen) in complete medium is added and incubated for 1 hour at RT. Cells are washed twice in Ca^2+-free HBSS buffer and 35 μL Ca^2+-free HBSS buffer is added to each well. 10 μL of a test compound prepared in a Ca^2+-free HBSS solution at 4.5× of the desired concentration is added to a well and incubated for 5 minutes at RT. 10 μL of thapsigargin prepared in a Ca^2+-free HBSS solution at 5.5× of the desired concentration (5.5 uM) is added to each well and incubated for an additional 25 minutes. The initial baseline fluorescence signal is measured with a FLIPR^384 (Molecular Devices) plate reader. 5 μL of 12× calcium in HBSS (12 mM) is added and changes in cellular fluorescence are measured with the FLIPR^384 plate reader. In each well, the change in the fluorescent signal as a function of time due to calcium entry into the cell is determined by calculating the difference between the fluorescent signal measured 7 seconds after calcium addition and the initial baseline fluorescence signal at time zero (t=0). This parameter is designated Upslope. The IC50 value is calculated as the concentration at which 50% of the Upslope is inhibited.

T1 sequence (Q96D31 whole entry): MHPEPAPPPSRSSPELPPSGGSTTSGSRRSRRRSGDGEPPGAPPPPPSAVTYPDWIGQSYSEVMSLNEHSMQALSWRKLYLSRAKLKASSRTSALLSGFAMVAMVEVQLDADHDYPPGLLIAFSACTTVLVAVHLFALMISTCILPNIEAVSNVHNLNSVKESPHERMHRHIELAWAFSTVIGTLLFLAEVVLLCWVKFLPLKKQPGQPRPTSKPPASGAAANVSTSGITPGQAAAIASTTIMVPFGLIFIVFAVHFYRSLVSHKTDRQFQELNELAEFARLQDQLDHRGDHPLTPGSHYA

As to `CC(C)(C)c1nn(-c2nccs2)cc1-c1ccc(NC(=O)c2c(F)cccc2F)nc1` [Example 54, N-(5-(3-tert-butyl-1-(thiazol-2-yl)-1H-pyrazol-4-yl)pyridin-2-yl)-2,6-difluorobenzamide], in assay [1], the “Orai1/STIM1 (IC50, μmol)” value is given as “—”. Also, in assay [2] (Rattus norvegicus, RBL-2H3), the pIC50 is above 6.22. Turning to `Cc1nn(-c2nccs2)cc1-c1ccc(NC(=O)c2ccccc2OC(F)F)cc1` [Example 5, 2-(difluoromethoxy)-N-(4-(3-methyl-1-(thiazol-2-yl)-1H-pyrazol-4-yl)phenyl)benzamide], the pIC50 in assay [1] was above 6.22; in assay [2] (Rattus norvegicus, RBL-2H3), above 6.22. As for `Cc1nn(-c2nccs2)cc1-c1ccc(NC(=O)c2c(F)cc(F)cc2F)nc1` [Example 21, 2,4,6-trifluoro-N-(5-(3-methyl-1-(thiazol-2-yl)-1H-pyrazol-4-yl)pyridin-2-yl)benzamide], the pIC50 in assay [1] was above 6.22; in assay [2] (Rattus norvegicus, RBL-2H3) it was above 6.22.

Turning to “N-(5-(3-ethyl-1-(thiazol-2-yl)-1H-pyrazol-4-yl)pyrazin-2-yl)-2,3,6-trifluorobenzamide [Example 39]”, the pIC50 in assay [1] is 5.92 to 6.22; in assay [2], above 6.22.

As to `Cc1nn(-c2ccccc2F)cc1-c1ccc(NC(=O)c2ccccc2OC(F)F)nc1` [Example 61, 2-(difluoromethoxy)-N-(5-(1-(2-fluorophenyl)-3-methyl-1H-pyrazol-4-yl)pyridin-2-yl)benzamide], the pIC50 was below 5.92 in assay [1] and below 5.92 in assay [2] (Rattus norvegicus, RBL-2H3). Regarding `Cc1nn(-c2nccs2)cc1-c1ccc(NC(=O)c2ccccc2OC(F)F)cc1F` [Example 17, 2-(difluoromethoxy)-N-(3-fluoro-4-(3-methyl-1-(thiazol-2-yl)-1H-pyrazol-4-yl)phenyl)benzamide], the pIC50 in assay [1] is 5.92 to 6.22; in assay [2] (Rattus norvegicus, RBL-2H3) it was above 6.22. As to `Cc1nn(-c2nccs2)cc1-c1ccc(NC(=O)c2ccccc2F)s1` [Example 70, 2-fluoro-N-(5-(3-methyl-1-(thiazol-2-yl)-1H-pyrazol-4-yl)thiophen-2-yl)benzamide], the pIC50 was above 6.22 in assay [1] and above 6.22 in assay [2] (Rattus norvegicus, RBL-2H3).

As for `Cc1cnc(-n2cc(-c3ccc(NC(=O)c4c(F)ccc(F)c4F)nc3)c(C)n2)s1` [Example 64, 2,3,6-trifluoro-N-(5-(3-methyl-1-(5-methylthiazol-2-yl)-1H-pyrazol-4-yl)pyridin-2-yl)benzamide], the pIC50 in assay [1] was above 6.22; in assay [2] (Rattus norvegicus, RBL-2H3) it was above 6.22. In the case of `Cc1nn(-c2nccs2)cc1-c1ccc(NC(=O)c2cc(F)nc(F)c2)cc1F` [Example 16, 2,6-difluoro-N-(3-fluoro-4-(3-methyl-1-(thiazol-2-yl)-1H-pyrazol-4-yl)phenyl)isonicotinamide], the pIC50 in assay [1] is above 6.22; in assay [2] (Rattus norvegicus, RBL-2H3), above 6.22. With `Cc1nn(-c2nccs2)cc1-c1ccc(NC(=O)c2ccccc2F)cc1F` [Example 11, 2-fluoro-N-(3-fluoro-4-(3-methyl-1-(thiazol-2-yl)-1H-pyrazol-4-yl)phenyl)benzamide], the pIC50 is above 6.22 in assay [1] and above 6.22 in assay [2] (Rattus norvegicus, RBL-2H3). Regarding `O=C(Nc1cnc(-c2cn(-c3nccs3)nc2C2CC2)cn1)c1c(F)cccc1F` [Example 47, N-(5-(3-cyclopropyl-1-(thiazol-2-yl)-1H-pyrazol-4-yl)pyrazin-2-yl)-2,6-difluorobenzamide], the pIC50 in assay [1] was below 5.92; in assay [2] (Rattus norvegicus, RBL-2H3) it was above 6.22.

`Cc1cccc(F)c1C(=O)Nc1ccc(-c2cn(-c3ccccc3F)nc2C)cn1` [Example 59, 2-fluoro-N-(5-(1-(2-fluorophenyl)-3-methyl-1H-pyrazol-4-yl)pyridin-2-yl)-6-methylbenzamide]: the pIC50 was above 6.22 in assay [1] and above 6.22 in assay [2] (Rattus norvegicus, RBL-2H3). As for “N-(5-(3-ethyl-1-(thiazol-2-yl)-1H-pyrazol-4-yl)pyrazin-2-yl)-2,4,6-trifluorobenzamide [Example 40]”, the pIC50 in assay [1] and in assay [2] was above 6.22 throughout. For `Cc1nn(-c2nccs2)cc1-c1ccc(NC(=O)c2c(F)ccc(F)c2F)cc1` [Example 4, 2,3,6-trifluoro-N-(4-(3-methyl-1-(thiazol-2-yl)-1H-pyrazol-4-yl)phenyl)benzamide], the pIC50 in assay [1] is above 6.22; in assay [2] (Rattus norvegicus, RBL-2H3) it was above 6.22. With `CCc1nn(-c2nccs2)cc1-c1ccc(NC(=O)c2c(F)cccc2F)s1` [Example 73, N-(5-(3-ethyl-1-(thiazol-2-yl)-1H-pyrazol-4-yl)thiophen-2-yl)-2,6-difluorobenzamide], the pIC50 in assay [1] was 5.92 to 6.22; in assay [2] (Rattus norvegicus, RBL-2H3), above 6.22. In the same order, the values of `CCc1nn(-c2nccs2)cc1-c1cnc(NC(=O)c2c(F)cccc2F)cn1` [Example 38, N-(5-(3-ethyl-1-(thiazol-2-yl)-1H-pyrazol-4-yl)pyrazin-2-yl)-2,6-difluorobenzamide] are above 6.22 and above 6.22. The like results for `Cc1nn(-c2ccccc2F)cc1-c1ccc(NC(=O)c2c(F)cccc2F)nc1` [Example 57, 2,6-difluoro-N-(5-(1-(2-fluorophenyl)-3-methyl-1H-pyrazol-4-yl)pyridin-2-yl)benzamide] were, in that order, above 6.22 and above 6.22.

On to `Cc1nn(-c2nccs2)cc1-c1cnc(NC(=O)c2c(F)cccc2F)cn1` [Example 24, 2,6-difluoro-N-(5-(3-methyl-1-(thiazol-2-yl)-1H-pyrazol-4-yl)pyrazin-2-yl)benzamide], for which the pIC50 was above 6.22 in assay [1] and above 6.22 in assay [2] (Rattus norvegicus, RBL-2H3). For `Cc1nn(-c2nccs2)cc1-c1ccc(NC(=O)c2c(F)ccc(F)c2F)cc1F` [Example 13, 2,3,6-trifluoro-N-(3-fluoro-4-(3-methyl-1-(thiazol-2-yl)-1H-pyrazol-4-yl)phenyl)benzamide], the pIC50 in assay [1] is above 6.22; in assay [2] (Rattus norvegicus, RBL-2H3), above 6.22. Turning to `O=C(Nc1ccc(-c2cn(-c3nccs3)nc2C2CC2)c(F)c1)c1c(F)ccc(F)c1F` [Example 42, N-(4-(3-cyclopropyl-1-(thiazol-2-yl)-1H-pyrazol-4-yl)-3-fluorophenyl)-2,3,6-trifluorobenzamide], the pIC50 is 5.92 to 6.22 in assay [1] and above 6.22 in assay [2] (Rattus norvegicus, RBL-2H3). On to `CCc1nn(-c2nccs2)cc1-c1ccc(NC(=O)c2c(F)cc(F)cc2F)nc1` [Example 37, N-(5-(3-ethyl-1-(thiazol-2-yl)-1H-pyrazol-4-yl)pyridin-2-yl)-2,4,6-trifluorobenzamide], for which the pIC50 in assay [1] is above 6.22; in assay [2] (Rattus norvegicus, RBL-2H3), above 6.22. For `Cc1nn(-c2nccs2)cc1-c1cnc(NC(=O)c2ccccc2F)cn1` [Example 25, 2-fluoro-N-(5-(3-methyl-1-(thiazol-2-yl)-1H-pyrazol-4-yl)pyrazin-2-yl)benzamide], the pIC50 in assay [1] is above 6.22; in assay [2] (Rattus norvegicus, RBL-2H3) it was above 6.22.

As for `Cc1nn(-c2cc(F)ccc2F)cc1-c1ccc(NC(=O)c2c(F)ccc(F)c2F)nc1` [Example 56, N-(5-(1-(2,5-difluorophenyl)-3-methyl-1H-pyrazol-4-yl)pyridin-2-yl)-2,3,6-trifluorobenzamide], the pIC50 in assay [1] is above 6.22; in assay [2] (Rattus norvegicus, RBL-2H3), below 5.92.

As for `Cc1nn(-c2nccs2)cc1-c1ccc(NC(=O)c2ccc(F)c(F)c2F)nc1` [Example 22, 2,3,4-trifluoro-N-(5-(3-methyl-1-(thiazol-2-yl)-1H-pyrazol-4-yl)pyridin-2-yl)benzamide], the pIC50 in assay [1] is 5.92 to 6.22.

Turning to `Cc1nn(-c2nccs2)cc1-c1cnc(NC(=O)c2ccc(F)c(F)c2F)cn1` [Example 29, 2,3,4-trifluoro-N-(5-(3-methyl-1-(thiazol-2-yl)-1H-pyrazol-4-yl)pyrazin-2-yl)benzamide], in assay [1], the pIC50 was below 5.92.
